Measurements published in PMC12477777, “Human exposure to green spaces and monoterpenes: discovery and use of α-pinene metabolites as biomarkers” (Environment international, 2025).

What was measured:
[1] = Relative quantification of urinary aPM (UPLC-QTOF-MS, creatinine-normalized) after controlled α-pinene inhalation; assay type: in vivo, human; settings: for Frequency of occurrence (percentage of samples with analyte detected) / Maximum response (highest peak response across all urine samples) / Observed Tmax / Tmax: human urine after α-pinene inhalation; for Proportion (observed) after α-pinene inhalation: share of total response of 22 aPM, averaged over post-exposure samples; for Tmax: inhaled or intranasal, read-out: Observed Tmax
Description: (§1) Briefly, for controlled inhalation experiments, eight healthy volunteers were exposed to α-pinene in a custom-built exposure chamber via inhalation from a 15 ml conical tube, containing approximately 100 μl α-pinene, for a duration of 10 min. Urine samples were collected before exposure (0 h) and 0.5, 1, 2, 3, and 4 h after exposure. […] Urine samples were collected both before (0 h) or 4 h after exposure. After collection, the urine samples were centrifuged and stored at −80 °C before analysis. […] Demographic information, including sex, age and race, can be found in Table S1.
(§2) Briefly, after 1:10 dilution, urine samples were separated using an Acquity I-Class UPLC system with an Acquity Premier CSH C18 UPLC column (Waters, MA) with a gradient comprising 0.1 % formic acid in water as the solvent A and 0.1 % formic acid in acetonitrile as the solvent B. Mass Spectrometry Elevated Energy (MS^E) data were collected using a Waters Synapt XS MS (Waters, MA) with an ESI ion source operated in the negative mode. Subsequent analyses of raw files were performed using UNIFI 1.9 and Progenesis QI 3.0 (both from Waters, MA). To validate LC-MS performance, one quality control (QC) sample, prepared by pooling equal amount of each urine sample, was injected after every ten urine sample injections.
(§3) Relative quantification of aPM was performed based on the peak responses normalized to urinary creatinine levels. Urinary creatinine levels were measured using an Ace Axcel Clinical Chemistry System with ACE Creatinine Reagent from Alfa Wassermann (West Caldwell, NJ). Statistical analyses, including ANOVA and Student’s t-tests, were conducted using SAS 9.4 (SAS Institute, NC) to explore differences in aPM across various time points. […] A threshold for statistical significance was defined as p < 0.05.

[2] = Kinetic modeling of urinary aPM with a pseudo one-compartment nonlinear mixed-effects model after α-pinene inhalation; assay type: in vivo, human; settings: for F (%), fraction of metabolite generated from absorbed α-pinene: human urine after 10 min α-pinene inhalation, F normalized to the sum of 22 detected metabolites; for Elimination t1/2 / Ka, first-order generation constant / Ke, first-order elimination rate constant / half-life / k el: human urine after α-pinene inhalation, pseudo one-compartment model; for half-life / k el: inhaled or intranasal; for half-life: read-out: Elimination t1/2 (converted); for k el: read-out: Ke, first-order elimination rate constant (converted)
Text: In this equation, i represents the participant index, j the urine sample index, C the creatinine-normalized peak response, and t the sample collection time ( h).Ka denotes the first-order generation constant ( h^−1 ), and Ke denotes the first-order elimination rate constant h^−1 . F indicates the fraction of specific aPM relative to absorbed α-pinene. The variables D and V refer to the absorbed α-pinene amount and the distribution volume, respectively. Because input data were derived from relative quantification, absolute values of D , V , and F were not available. For simplicity, D and V were fixed at 100 and 1, respectively, and F was normalized relative to the sum of all detected aPM. The error term ε accounts for residual variation.

[3] = Urinary aPM after 4 h greenness (forest) exposure; assay type: in vivo, human; parameters: Maximum response: unit not given here; settings: for Frequency of occurrence / Maximum response: human urine, greenness exposure; for Proportion (observed) after greenness exposure: share of total aPM response
Description: as §1, §2, §3

[4] = aPM in mouse urine after i.p. injection of (+)-α-pinene or (−)-α-pinene; assay type: in vivo, mice (C57BL/6); settings: for R/(R+S): mouse urine, enantiomer specificity
Description: Mouse urine was collected after exposures to either (+) or (−) α-pinene to distinguish between metabolites of different enantiomers of α-pinene. Adult male mice (C57BL/6) were intraperitoneally administered with 50 mg/kg body weight of (+)-α-pinene or (−)-α-pinene dissolved in 100 μl sterile saline with 1 % Tween 80.

[5] = limonene in blood; ref Falk-Filipsson et al., 1993; cited from earlier work
[6] = mouse urine collected overnight, 50 mg/kg i.p. (+)-α-pinene, 50 mg/kg
[7] = mouse urine collected overnight, 50 mg/kg i.p. (−)-α-pinene, 50 mg/kg
[8] = male, C57BL/6, mouse, in vivo, ip, 50 mg/kg

Molecule | Frequency of occurrence (percentage of samples with analyte detected) [1] [%] | Maximum response (highest peak response across all urine samples) [1] | Observed Tmax [1] [min] | Proportion (observed) after α-pinene inhalation [1] [%] | F (%), fraction of metabolite generated from absorbed α-pinene [2] [%] | Elimination t1/2 [2] [min] | Ka, first-order generation constant [2] [h⁻¹] | Ke, first-order elimination rate constant [2] [h⁻¹] | Frequency of occurrence [3] [%] | Maximum response [3] | Proportion (observed) after greenness exposure [3] [%] | (1R)-(+)-α-Pinene (Average), proportion of aPM in mouse urine [4, 6] [%] | (1S)-(−)-α-Pinene (Average), proportion of aPM in mouse urine [4, 7] [%] | R/(R+S) [4] [%] | also measured
CC1(C)C2CC1C(OC1OC(C(=O)O)C(O)C(O)C1O)C=C2C(=O)O (single isomer, unassigned) [aPM5c, Myrtenic acid-4-O-GlcA] | 79.2 | 25963 | 60 | 1.2 | 1.28 ± 0.53 | 52.8 ± 21.6 | 1.73 ± 0.89 | 0.79 ± 0.32 | 37.5 | 136 | 0.7 | 0.0 | 0.0 | – | –
CC1(C)C2CC1C(OC1OC(C(=O)O)C(O)C(O)C1O)C=C2C(=O)O (single isomer, unassigned) [aPM5d, Myrtenic acid-4-O-GlcA] | 81.3 | 5115 | 60 | 0.4 | 0.27 ± 0.09 | 78.6 ± 27.6 | 1.33 ± 0.51 | 0.53 ± 0.19 | 0.0 | – | – | 0.2 | 0.0 | 100 | –
CC1(C)C2CC1C(OC1OC(C(=O)O)C(O)C(O)C1O)C=C2C(=O)O (single isomer, unassigned) [aPM5e, Myrtenic acid-4-O-GlcA] | 72.9 | – | 60 | 0.3 | 0.38 ± 0.16 | 45.6 ± 16.8 | 0.91 ± 0.36 | 0.91 ± 0.34 | 25.0 | 93 | 1.0 | 0.0 | 0.3 | 0 | –
CC1(C)C2CC1C(OC1OC(C(=O)O)C(O)C(O)C1O)C=C2C(=O)O (single isomer, unassigned) [aPM5f, Myrtenic acid-4-O-GlcA] | 87.5 | 5543 | 60 | 0.5 | 0.29 ± 0.12 | 57 ± 22.2 | 1.53 ± 0.71 | 0.73 ± 0.29 | 0.0 | – | – | 0.0 | 0.0 | – | –
CC1(C)C2CC1C(OC1OC(C(=O)O)C(O)C(O)C1O)C=C2C(=O)O (single isomer, unassigned) [aPM5g, Myrtenic acid-4-O-GlcA] | 100.0 | 77327 | 60 | 4.4 | 5.10 ± 2.25 | 41.4 ± 17.4 | 1.62 ± 0.81 | 1.01 ± 0.43 | 25.0 | 98 | 0.4 | 0.0 | 0.0 | – | –
CC1(C)C2CC1C(C(=O)O)=CC2=O (stereo not shown) [aPM1, Myrtenic acid-4-one] | 95.8 | 17385 | – | 1.8 | 1.15 ± 0.39 | – | 1.25 ± 0.43 | – | 31.3 | 3544 | 1.3 | – | – | – | Tmax [1]: 60 min; half-life [2]: 72 ± 22.8 min; k el [2]: 0.000161 s⁻¹; (1R)-(+)-α-Pinene (Average), proportion of aPM in mouse urine [4, 8]: 0.1%; (1S)-(−)-α-Pinene (Average), proportion of aPM in mouse urine [4, 8]: 0.8%
CC1=CC(OC2OC(C(=O)O)C(O)C(O)C2O)C2CC1C2(C)C (stereo not shown) [aPM2b, verbenol glucuronide] | 100.0 | – | – | – | 17.23 ± 3.91 | – | 3.46 ± 0.98 | – | 6.3 | 171 | 0.3 | – | – | – | Tmax [1]: 30 min; half-life [2]: 35.4 ± 4.8 min; k el [2]: 0.000325 s⁻¹; (1R)-(+)-α-Pinene (Average), proportion of aPM in mouse urine [4, 8]: 50.5%; (1S)-(−)-α-Pinene (Average), proportion of aPM in mouse urine [4, 8]: 34.4%; Detection in mouse urine ([4]; mouse, in vivo): present in murine samples
CC1(C)C2CC=C(COC3OC(C(=O)O)C(O)C(O)C3O)C1C2 (stereo not shown) [aPM2c, myrtenol glucuronide] | 95.8 | 154854 | – | 4.9 | 6.99 ± 2.12 | – | 3.02 ± 0.88 | – | 31.3 | 1435 | 0.5 | – | – | – | Tmax [1]: 30 min; half-life [2]: 30 ± 5.4 min; k el [2]: 0.000386 s⁻¹; (1R)-(+)-α-Pinene (Average), proportion of aPM in mouse urine [4, 8]: 21.8%; (1S)-(−)-α-Pinene (Average), proportion of aPM in mouse urine [4, 8]: 30.3%
C=C(C)[C@H]1CC=C(C)CC1 [limonene] | – | – | – | – | – | – | – | – | – | – | – | – | – | – | Blood half-life (t1/2α) [5]: ~ 3 min
Myrtenic acid-4-O-7-O-GlcA [aPM8] | 83.3 | 13644 | 60 | 0.8 | 0.65 ± 0.31 | 58.2 ± 25.2 | 0.73 ± 0.33 | 0.71 ± 0.31 | 0.0 | – | – | – | – | – | (1R)-(+)-α-Pinene (Average), proportion of aPM in mouse urine ([4]; mouse urine collected overnight, 50 mg/kg i.p. (+)-α-pinene): 0.0%; (1S)-(−)-α-Pinene (Average), proportion of aPM in mouse urine ([4]; mouse urine collected overnight, 50 mg/kg i.p. (−)-α-pinene): 0.0%
Pinanetriol-GlcA [aPM7a] | 89.6 | 20611 | 60 | 1.3 | 1.56 ± 0.66 | 44.4 ± 13.2 | 1.46 ± 0.48 | 0.93 ± 0.27 | 0.0 | – | – | 21.2 | 3.8 | 84.7 | –
Pinanetriol-GlcA [aPM7b] | 83.3 | 8663 | 30 | 0.2 | 0.28 ± 0.09 | 36.6 ± 7.2 | 2.69 ± 0.73 | 1.15 ± 0.22 | 0.0 | – | – | 3.7 | 0.0 | 100 | –
